“And” between values parts separate entries of the source, which are not always exact repeats. Equal entries are not always repeated.
Tested on: CD2F1 mice, P1798 lymphosarcoma sc, tumor weight T/C
Assay: NCI In Vivo Anticancer Drug Screen. Data for tumor model P1798 Lymphosarcoma (subcutaneous) in CD2F1 (CDF1) mice
Conditions: endpoint: mean tumor weight, higher = larger tumour
Description: The antitumor activity of compounds was measured in mice bearing transplantable tumors. Survival or tumor size were measured and the results are expressed as the measurement made in the treated group (T) divided by the measurement made in the vehicle treated control group (C). The tumor model used in this assay is P1798 Lymphosarcoma (subcutaneous) in CD2F1 (CDF1) mice

[1] = dose: 12.5 mg/kg/injection, schedule: Q01DX010 (ip), vehicle: saline
[2] = dose: 25.0 mg/kg/injection, schedule: Q01DX010 (ip), vehicle: saline
[3] = dose: 100.0 mg/kg/injection, schedule: Q01DX010 (ip), vehicle: saline
[4] = dose: 6.25 mg/kg/injection, schedule: Q01DX010 (ip), vehicle: saline
[5] = dose: 50.0 mg/kg/injection, schedule: Q01DX010 (ip), vehicle: saline
[6] = dose: 1.25 mg/kg/injection, schedule: Q01DX010 (ip), vehicle: saline
[7] = dose: 2.5 mg/kg/injection, schedule: Q01DX010 (ip), vehicle: saline
[8] = dose: 12.5 mg/kg/injection, schedule: Q01DX010 (sc), vehicle: steriod suspending solution
[9] = dose: 25.0 mg/kg/injection, schedule: Q01DX010 (sc), vehicle: steriod suspending solution
[10] = dose: 50.0 mg/kg/injection, schedule: Q01DX010 (sc), vehicle: steriod suspending solution
[11] = dose: 0.16 mg/kg/injection, schedule: Q01DX010 (ip), vehicle: saline
[12] = dose: 0.25 mg/kg/injection, schedule: Q01DX010 (ip), vehicle: saline
[13] = dose: 0.38 mg/kg/injection, schedule: Q01DX010 (ip), vehicle: saline
[14] = dose: 0.57 mg/kg/injection, schedule: Q01DX010 (ip), vehicle: saline

Q: Which T/C [1] does the source give for `c1ccc(CSc2ncnc3nc[nH]c23)cc1` here?
A: 70 % of control and 82 % of control

Q: What about the T/C [2] of the same molecule?
A: 83 % of control and 85 % of control

Q: What about the T/C [3] of the same molecule?
A: 13 % of control

Q: With `CCCSc1ncnc2nc[nH]c12` as the molecule, how does the T/C (dose: 125.0 mg/kg/injection, schedule: Q01DX010 (ip), vehicle: saline) read?
A: 21 % of control

Q: `OCC1OC(n2cnc3c(Cl)ncnc32)C(O)C1O` (configuration not stated) was tested. Which T/C (dose: 250.0 mg/kg/injection, schedule: Q01DX010 (ip), vehicle: saline) did it give?
A: 95 % of control and 103 % of control

Q: With `COc1cc(C[C@H]2c3cc(OC)c(OC)cc3CCN2C)c(Oc2cc3c(cc2OC)-c2c(OC)c(OC)cc4c2[C@H](C3)N(C)CC4)cc1OC` as the molecule, how does the T/C (dose: 50.0 mg/kg/injection, schedule: Q01DX011 (ip), vehicle: carboxymethylcellulose (CMC)) read?
A: 13 % of control

Q: What does the source list for `c1ccc(COCC[P+](c2ccccc2)(c2ccccc2)c2ccccc2)cc1`?
A: T/C (dose: 3.0 mg/kg/injection, schedule: Q01DX010 (ip), vehicle: saline): 76 % of control; T/C (dose: 5.0 mg/kg/injection, schedule: Q01DX010 (ip), vehicle: saline): 98 % of control; T/C (dose: 8.0 mg/kg/injection, schedule: Q01DX010 (ip), vehicle: saline): 88 % of control; T/C (dose: 12.0 mg/kg/injection, schedule: Q01DX010 (ip), vehicle: saline): 33 % of control

Q: How did the T/C [4] turn out when `NC(N)=NCCCC(N)C(=O)NCCCCCCCCCCNC(=O)C(N)CCCN=C(N)N` (configuration not stated) was run?
A: 103 % of control

Q: And the T/C [1]?
A: 110 % of control

Q: And the T/C [2]?
A: 78 % of control

Q: What about the T/C [5] of the same molecule?
A: 99 % of control

Q: With `NCCCCCCNCCCCCCN` as the molecule, how does the T/C [4] read?
A: 90 % of control

Q: What about the T/C [1] of the same molecule?
A: 89 % of control

Q: What about the T/C [2] of the same molecule?
A: 100 % of control and 78 % of control

Q: And the T/C [5]?
A: 50 % of control and 70 % of control

Q: What does the source list for `Nc1nc(=S)c2[nH]cnc2[nH]1`?
A: T/C (dose: 0.63 mg/kg/injection, schedule: Q01DX010 (ip), vehicle: saline): 74 % of control; T/C [6]: 51 % of control and 72 % of control; T/C [7]: 44 % of control

Q: How did the T/C [2] turn out when `CSc1ncnc2nc[nH]c12` was run?
A: 100 % of control and 78 % of control

Q: What about the T/C [5] of the same molecule?
A: 81 % of control and 86 % of control

Q: And the T/C [3]?
A: 94 % of control and 70 % of control

Q: What about the T/C (dose: 200.0 mg/kg/injection, schedule: Q01DX010 (ip), vehicle: saline) of the same molecule?
A: 61 % of control and 64 % of control

Q: `C[C@@H]1C[C@@]2(C)[C@@H](CC[C@@H]3[C@@H]2CC[C@]2(C)[C@@H](O)CC[C@@H]32)CC1=O` was tested. Which T/C [8] did it give?
A: 118 % of control and 124 % of control

Q: What about the T/C [9] of the same molecule?
A: 100 % of control and 107 % of control

Q: What about the T/C [10] of the same molecule?
A: 101 % of control and 111 % of control

Q: And the T/C (dose: 100.0 mg/kg/injection, schedule: Q01DX010 (sc), vehicle: steriod suspending solution)?
A: 109 % of control and 121 % of control

Q: How did the T/C [6] turn out when `O=C1C=Cc2ccc(O)cc2C1=O` was run?
A: 72 % of control

Q: And the T/C [7]?
A: 63 % of control

Q: How did the T/C (dose: 0.1 mg/kg/injection, schedule: Q01DX009 (ip), vehicle: saline) turn out when `CC(=O)OC(C)(C)/C=C/C(=O)[C@](C)(O)[C@H]1[C@H](O)C[C@@]2(C)[C@@H]3CC=C4[C@@H](C[C@H](O)C(=O)C4(C)C)[C@]3(C)C(=O)C[C@]12C` was run?
A: 99 % of control

Q: What about the T/C [11] of the same molecule?
A: 71 % of control

Q: And the T/C (dose: 0.2 mg/kg/injection, schedule: Q01DX009 (ip), vehicle: saline)?
A: 68 % of control

Q: What about the T/C (dose: 0.2 mg/kg/injection, schedule: Q01DX011 (ip), vehicle: carboxymethylcellulose (CMC)) of the same molecule?
A: 106 % of control

Q: And the T/C [12]?
A: 70 % of control

Q: And the T/C (dose: 0.3 mg/kg/injection, schedule: Q01DX011 (ip), vehicle: carboxymethylcellulose (CMC))?
A: 56 % of control

Q: And the T/C [13]?
A: 70 % of control

Q: What about the T/C (dose: 0.4 mg/kg/injection, schedule: Q01DX009 (ip), vehicle: saline) of the same molecule?
A: 77 % of control

Q: And the T/C [14]?
A: 62 % of control

Q: And the T/C (dose: 0.6 mg/kg/injection, schedule: Q01DX011 (ip), vehicle: carboxymethylcellulose (CMC))?
A: 82 % of control

Q: What about the T/C (dose: 0.8 mg/kg/injection, schedule: Q01DX011 (ip), vehicle: carboxymethylcellulose (CMC)) of the same molecule?
A: 11 % of control

Q: Which results are given for `CC[n+]1c(-c2ccccc2)c2cc(N)ccc2c2ccc(N)cc21`?
A: T/C [6]: 108 % of control; T/C [7]: 97 % of control; T/C (dose: 10.0 mg/kg/injection, schedule: Q01DX010 (ip), vehicle: saline): 4 % of control and 10 % of control

Q: How did the T/C [11] turn out when `CC(=O)OC(C)(C)/C=C/C(=O)[C@](C)(O)[C@H]1[C@H](O)C[C@@]2(C)[C@@H]3CC=C4[C@@H](CC[C@H](O)C4(C)C)[C@]3(CO)C(=O)C[C@]12C` was run?
A: 109 % of control

Q: And the T/C [12]?
A: 89 % of control

Q: What about the T/C [13] of the same molecule?
A: 102 % of control

Q: What about the T/C [14] of the same molecule?
A: 109 % of control

Q: Which results are given for `CC(=O)O[C@H]1CC[C@H]2[C@@H]3CC[C@H]4CCCC[C@]4(C)[C@H]3CC[C@]12C`?
A: T/C [8]: 104 % of control and 121 % of control; T/C [9]: 103 % of control and 85 % of control; T/C [10]: 103 % of control

— PubChem BioAssay AID268 (DTP/NCI, 2004)
